Among the data in patent publication US8575197B2, “Pyrolinone derivative and pharmaceutical composition comprising the same” (Shionogi & Co., Ltd., priority 2008, dated 2013) are IC50 values, retold here.

Sequence of human P2X3 receptor (P56373 whole entry): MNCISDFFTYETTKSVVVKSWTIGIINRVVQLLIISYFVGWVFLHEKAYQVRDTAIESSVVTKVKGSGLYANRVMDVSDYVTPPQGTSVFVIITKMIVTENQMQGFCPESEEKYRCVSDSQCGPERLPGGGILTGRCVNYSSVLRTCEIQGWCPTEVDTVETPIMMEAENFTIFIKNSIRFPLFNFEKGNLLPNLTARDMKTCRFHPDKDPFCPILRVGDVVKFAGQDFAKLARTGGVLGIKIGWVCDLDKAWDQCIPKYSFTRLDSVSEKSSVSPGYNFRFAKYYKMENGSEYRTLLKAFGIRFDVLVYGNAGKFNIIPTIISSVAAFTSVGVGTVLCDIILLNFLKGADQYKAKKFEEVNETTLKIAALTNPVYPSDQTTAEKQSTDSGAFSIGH

The assay has as its target human P2X3 receptor (Homo sapiens (Human), UniProt P56373). Briefly: P2X3 receptor inhibition, ATP-evoked Fluo-3 calcium fluorescence (FDSS 3000). It is filed as cell-based. Conditions: C6BU-1 cell transfected with human P2X3 receptor gene; ATP-evoked Fluo-3 fluorescence. As to the method: Stably expressing cell line (C6BU-1 cell transfected with human P2X3 receptor gene (GenBank accession number Y07683)) was used. The cells were seeded in a 96-well microtiter plate at a concentration of 8000 cells/well and cultured in the medium (8.3% fetal bovine serum, 8.3% horse serum, 1% antibiotic and antifungal in DMEM) for one day at 37° C. under 5% carbon dioxide atmosphere. The medium was replaced with 4 μM Fluo-3-AM solution (pH7.5) containing 20 mM HEPES, 137 mM NaCl, 2.7 mM KCl, 0.9 mM MgCl2, 5.0 mM CaCl2, 5.6 mM D-glucose, 2.5 mM probenecid, 10% BSA, and 0.08% Pluronic F-127, and incubated at 37° C. under 5% dioxide carbon atmosphere for one hour. The plate was washed with washing buffer (20 mM HEPES, 137 mM NaCl, 2.7 mM KCl, 0.9 mM MgCl2, 5.0 mM CaCl2, 5.6 mM D-glucose, 2.5 mM probenecid, pH7.5), and each well was added with 40 μL of this buffer. The plate was placed in High-Throughput Screening System FDSS 3000 (Hamamatsu Photonics K.K.). Measurement of fluorescence intensity by FDSS 3000 was started, and 40 μL of DMSO solutions containing different concentrations of the test compound as prepared by dilution with dilution buffer (20 mM HEPES, 137 mM NaCl, 2.7 mM KCl, 0.9 mM MgCl2, 5.0 mM CaCl2, 5.6 mM D-glucose, 2.5 mM probenecid, 0.1% Pluronic F-127, pH7.5) were dispensed to each well through the built-in automatic dispenser. Five minutes after, 40 nM ATP solution (50 μL) prepared by dilution with the dilution buffer was dispensed through the built-in automatic dispenser, and the measurement of fluorescence intensity was continued for 3 min. For each well, the specific maximum fluorescence intensity was calculated as the ratio of the maximum fluorescence intensity after addition of the ATP solution to the fluorescence intensity at the starting of the measurement. […] FDSS software (Hamamatsu Photonics K.K.) was used for calculation of the specific maximum fluorescence intensity. IC50 was calculated using Microsoft™ Excel™ (Microsoft Corporation) and XLfit™ (ID Business Solutions Ltd.).
By IC50 is commonly meant the midpoint of a concentration-inhibition curve. Take `COCCOCc1ncccc1C1C(C(=O)C(C)(C)C)=C(O)C(=O)N1c1ccc(-c2ccsc2)cc1` (stereo not drawn) [Compound I-168]: the IC50 was found to be 120 nM.
In the case of `COCCOc1ncccc1C1C(C(=O)C(C)C)=C(O)C(=O)N1c1ccc(-c2ccsc2)cc1` (stereo not drawn) [Compound I-169], the half-maximal inhibitory concentration (IC50) came out at 19 nM.
Take `CSc1ccc(N2C(=O)C(O)=C(C(=O)C(C)(C)C)C2c2cccnc2OCCO)cc1` (stereo not drawn) [Compound I-171]: the IC50 amounted to 610 nM.
For `CC(C)(C)C(=O)C1=C(O)C(=O)N(c2ccc(-c3cccs3)cc2)C1c1cccnc1OCCO` (stereo not drawn) [Compound I-172] the value was 24 nM.
Under `CC(C)(C)C(=O)C1=C(O)C(=O)N(c2ccc(-c3ccco3)cc2)C1c1cccnc1OCCO` (stereo not drawn) [Compound I-173] stands 137 nM.
As to `COCCOc1ncccc1C1C(C(=O)C(C)C)=C(O)C(=O)N1c1ccc(-c2noc(C)n2)cc1` (stereo not drawn) [Compound I-174], the IC50 is 572 nM.
Under `CC(C)C(=O)C1=C(O)C(=O)N(c2ccc(-c3ccsc3)cc2)C1c1cccnc1OCCO` (stereo not drawn) [Compound I-176] stands 46 nM; under `Cc1nc(-c2ccc(N3C(=O)C(O)=C(C(=O)C(C)C)C3c3cccnc3OCCO)cc2)no1` (stereo not drawn) [Compound I-178], 374 nM.
As to `CC(C)C(=O)C1=C(O)C(=O)N(c2ccc(-c3ccon3)cc2)C1c1cccnc1OCCO` (stereo not drawn) [Compound I-179], the concentration for half-maximal inhibition (IC50) was 659 nM.
For `CC(C)(C)C(=O)C1=C(O)C(=O)N(c2ccc(-c3ccsc3)cc2)C1c1ccccc1OCC#N` (stereo not drawn) [Compound I-180] the value was 5 nM; for `COC(=O)COCc1ncccc1C1C(C(=O)C(C)(C)C)=C(O)C(=O)N1c1ccc(-c2ccsc2)cc1` (stereo not drawn) [Compound I-181], 114 nM; for `CC(C)C(=O)C1=C(O)C(=O)N(c2ccc(-c3ccsc3)cc2)C1c1ccccc1OCC#N` (stereo not drawn) [Compound I-183], 4 nM.
For `CC(C)(C)C(=O)C1=C(O)C(=O)N(c2ccc(-c3ccsc3)cc2)C1c1ccccc1C(=O)O` (stereo not drawn) [Compound I-184] the value was 163 nM.
Under `CC(C)C(=O)C1=C(O)C(=O)N(c2ccc(-c3ccsc3)cc2)C1c1ccccc1OCC(=O)O` (stereo not drawn) [Compound I-185] stands 111 nM.
`COCc1ccccc1C1C(C(=O)C(C)C)=C(O)C(=O)N1c1ccc(-c2ccsc2)cc1` (stereo not drawn) [Compound I-186]: the IC50 came to 13 nM.
Turning to `COc1ncccc1C1C(C(=O)C(C)C)=C(O)C(=O)N1c1ccc(-c2ccsc2)cc1` (stereo not drawn) [Compound I-187], the IC50 was 86 nM.
Turning to `CNC(=O)COc1ccccc1C1C(C(=O)C(C)C)=C(O)C(=O)N1c1ccc(-c2ccsc2)cc1` (stereo not drawn) [Compound I-188], the IC50 was 22 nM.
With `CC(C)C(=O)C1=C(O)C(=O)N(c2ccc(-c3ccsc3)cc2)C1c1ccccc1OCC(N)=O` (stereo not drawn) [Compound I-189], the IC50 came to 14 nM.
As to `CC(C)C(=O)C1=C(O)C(=O)N(c2ccc(-c3ccoc3)cc2)C1c1ccccc1OCCO` (stereo not drawn) [Compound I-190], the half-inhibitory concentration (IC50) was determined as 40 nM.
Under `CC(C)C(=O)C1=C(O)C(=O)N(c2ccc(-c3ccon3)cc2)C1c1ccccc1OCCO` (stereo not drawn) [Compound I-191] stands 279 nM; under `COc1ccccc1C1C(C(=O)C(C)(C)C)=C(O)C(=O)N1c1ccc(-c2ccsc2Cl)cc1` (stereo not drawn) [Compound I-192], 612 nM; under `COc1ccccc1C1C(C(=O)C(C)(C)C)=C(O)C(=O)N1c1ccc(-c2cscc2C)cc1` (stereo not drawn) [Compound I-193], 994 nM.
For `COCc1ncccc1C1C(C(=O)C(C)C)=C(O)C(=O)N1c1ccc(-c2ccsc2)cc1` (stereo not drawn) [Compound I-194] the value was 63 nM; for `CC(C)C(=O)C1=C(O)C(=O)N(c2ccc(-c3ccsc3)cc2)C1c1cccnc1OCC(=O)O` (stereo not drawn) [Compound I-195], 235 nM; for `COc1ccccc1C1C(C(=O)C(C)(C)C)=C(O)C(=O)N1c1ccc(-c2csc(C)c2)cc1` (stereo not drawn) [Compound I-197], 36 nM.
Consider `COc1ccccc1C1C(C(=O)C(C)C)=C(O)C(=O)N1c1ccc(-c2ccoc2)cc1` (stereo not drawn) [Compound I-198], for which the IC50 came to 64 nM.
Under `CNC(=O)COc1ncccc1C1C(C(=O)C(C)C)=C(O)C(=O)N1c1ccc(-c2ccsc2)cc1` (stereo not drawn) [Compound I-199] stands 19 nM.
For the molecule `CC(C)C(=O)C1=C(O)C(=O)N(c2ccc(-c3ccsc3)cc2)C1c1cccnc1OCC(N)=O` (stereo not drawn) [Compound I-200], the IC50 turned out to be 14 nM.
Under `COCCOc1ccccc1C1C(C(=O)C(C)C)=C(O)C(=O)N1c1ccc(-c2ccoc2)cc1` (stereo not drawn) [Compound I-201] stands 39 nM; under `COc1ccccc1[C@@H]1C(C(=O)C(C)C)=C(O)C(=O)N1c1ccc(-c2ccoc2)cc1` [Compound I-202], 40 nM; under `COCc1ccccc1C1C(C(=O)C(C)C)=C(O)C(=O)N1c1ccc(-c2ccoc2)cc1` (stereo not drawn) [Compound I-204], 43 nM.
For `COCCOc1ccccc1[C@@H]1C(C(=O)C(C)C)=C(O)C(=O)N1c1ccc(-c2ccoc2)cc1` [Compound I-208] the value was 14 nM; for `COCCOc1ccccc1[C@H]1C(C(=O)C(C)C)=C(O)C(=O)N1c1ccc(-c2ccoc2)cc1` [Compound I-209], 234 nM; for `COc1ccccc1C1C(C(=O)C(C)(C)C)=C(O)C(=O)N1c1ccc(-c2ccc(C)s2)cc1` (stereo not drawn) [Compound I-210], 47 nM.
For `COc1ccccc1C1C(C(=O)c2ccco2)=C(O)C(=O)N1c1ccc(-c2ccsc2)cc1` (stereo not drawn) [Compound I-211] the value was 157 nM; for `CC(=O)N(C)c1ccccc1C1C(C(=O)C(C)C)=C(O)C(=O)N1c1ccc(-c2ccsc2)cc1` (stereo not drawn) [Compound I-212], 92 nM.
For the molecule `COCOc1ccccc1C1C(C(=O)C(C)C)=C(O)C(=O)N1c1ccc(-c2ccsc2)cc1` (stereo not drawn) [Compound I-213], the IC50 came out at 6 nM.
`COc1ccccc1C1C(C(=O)C(C)C)=C(O)C(=O)N1c1ccc(-c2cccs2)cc1` (stereo not drawn) [Compound I-214]: the IC50 amounted to 22 nM.
On to `COCc1ccccc1C1C(C(=O)C(C)C)=C(O)C(=O)N1c1ccc(-c2cccs2)cc1` (stereo not drawn) [Compound I-215], for which the IC50 was determined as 13 nM.
Take `CCOC(=O)C1C(C(=O)C(C)C)=C(O)C(=O)N1c1ccc(-c2ccsc2)cc1` (stereo not drawn) [Compound I-216]: the IC50 came out at 679 nM.
Consider `CC(C)C(=O)C1=C(O)C(=O)N(c2ccc(-c3ccsc3)cc2)C1c1ccccc1OCc1nnn[nH]1` (stereo not drawn) [Compound I-217], for which the half-inhibitory concentration (IC50) came out at 12 nM.
Under `COc1ccccc1C1C(C(=O)C2CC2)=C(O)C(=O)N1c1ccc(-c2ccsc2)cc1` (stereo not drawn) [Compound I-218] stands 73 nM.
Consider `CC(C)C(=O)C1=C(O)C(=O)N(c2ccc(-c3ccsc3)cc2)C1c1ccccn1` (stereo not drawn) [Compound I-219], for which the IC50 came to 324 nM.
With `CC(C)C(=O)C1=C(O)C(=O)N(c2ccc(-c3ccsc3)cc2)C1c1ccccc1OCC(=N)NO` (stereo not drawn) [Compound I-220], the IC50 stood at 5 nM.
For `COc1cc(N2C(=O)C(O)=C(C(=O)C(C)C)C2c2ccccc2OC)ccc1-c1ccsc1` (stereo not drawn) [Compound I-221] the value was 81 nM; for `COCCOc1ccccc1[C@@H]1C(C(=O)C(C)C)=C(O)C(=O)N1c1ccc(-c2ccsc2)cc1` [Compound I-222], 6 nM.
In the case of `CC(C)C(=O)C1=C(O)C(=O)N(c2ccc(-c3cccs3)cc2)C1c1ccccc1OCCO` (stereo not drawn) [Compound I-223], the IC50 stood at 12 nM.
Regarding `COc1ccccc1C1C(C(=O)C(C)C)=C(O)C(=O)N1c1ccc(-c2ccco2)cc1` (stereo not drawn) [Compound I-224], the IC50 is 73 nM.
